Data from ChEMBL document CHEMBL4020759, “Sulfoximines as ATR inhibitors: Analogs of VE-821” (2017).
Activity calls are given as the source filed them. No cut-off for these calls is given here.

Legend:
[1] = molecular target: Serine/threonine-protein kinase ATR (Homo sapiens) (UniProt Q13535); test: Inhibition of ATR in human U2OS cells assessed as reduction in hydroxyurea-induced Chk-1 phosphorylation at Ser345 residue at 10 uM preincubated for 1 hr followed by hydroxyurea challenge measured after 1 hr by Western blot analysis; format: cell-based
[2] = molecular target: Serine-protein kinase ATM (Homo sapiens) (UniProt Q13315); test: Inhibition of ATM in human U2OS cells assessed as reduction in hydroxyurea-induced H2AX phosphorylation at Ser139 residue at 3 to 10 uM preincubated for 1 hr followed by hydroxyurea challenge measured after 2 hrs by Western blot analysis; format: cell-based
[3] = molecular target: Serine/threonine-protein kinase ATR (Homo sapiens) (UniProt Q13535); test: Inhibition of ATR in human Ramos cells assessed as reduction in […] at 10 uM after 48 hrs by Western blot analysis; format: cell-based
Ramos = test: Induction of apoptosis in human Ramos cells assessed as increase PARP-1 cleavage at 10 uM after 48 hrs by Western blot analysis; format: functional, cell-based
HL-60(TB) = test: Growth inhibition of human HL-60(TB) cells assessed as cell growth at 10 uM incubated for 48 hrs by sulforhodamine B assay; format: functional; conditions: HL-60, 48 h, read-out: Activity
CCRF-CEM = test: Growth inhibition of human CCRF-CEM cells assessed as cell growth at 10 uM incubated for 48 hrs by sulforhodamine B assay; format: functional; conditions: read-out: Activity
RPMI-8226 = test: Growth inhibition of human RPMI8226 cells assessed as cell growth at 10 uM incubated for 48 hrs by sulforhodamine B assay; format: functional; conditions: RPMI-8226, 48 h, read-out: Activity
EKVX = test: Growth inhibition of human EKVX cells assessed as cell growth at 10 uM incubated for 48 hrs by sulforhodamine B assay; format: functional; conditions: read-out: Activity
HOP-62 = test: Growth inhibition of human HOP62 cells assessed as cell growth at 10 uM incubated for 48 hrs by sulforhodamine B assay; format: functional; conditions: HOP-62, 48 h, read-out: Activity
HOP-92 = test: Growth inhibition of human HOP92 cells assessed as cell growth at 10 uM incubated for 48 hrs by sulforhodamine B assay; format: functional; conditions: HOP-92, 48 h, read-out: Activity
NCI-H23 = test: Growth inhibition of human NCI-H23 cells assessed as cell growth at 10 uM incubated for 48 hrs by sulforhodamine B assay; format: functional; conditions: NCI-H23, 48 h, read-out: Activity
NCI-H522 = test: Growth inhibition of human NCI-H522 cells assessed as cell growth at 10 uM incubated for 48 hrs by sulforhodamine B assay; format: functional; conditions: NCI-H522, 48 h, read-out: Activity
SF-539 = test: Growth inhibition of human SF539 cells assessed as cell growth at 10 uM incubated for 48 hrs by sulforhodamine B assay; format: functional; conditions: SF-539, 48 h, read-out: Activity
U-251 = test: Growth inhibition of human U251 cells assessed as cell growth at 10 uM incubated for 48 hrs by sulforhodamine B assay; format: functional; conditions: U-251, 48 h, read-out: Activity
Malme-3M = test: Growth inhibition of human MALME-3M cells assessed as cell growth at 10 uM incubated for 48 hrs by sulforhodamine B assay; format: functional; conditions: read-out: Activity
SK-MEL-2 = test: Growth inhibition of human SK-MEL-2 cells assessed as cell growth at 10 uM incubated for 48 hrs by sulforhodamine B assay; format: functional; conditions: SK-MEL-2, 48 h, read-out: Activity
UACC-257 = test: Growth inhibition of human UACC257 cells assessed as cell growth at 10 uM incubated for 48 hrs by sulforhodamine B assay; format: functional; conditions: UACC-257, 48 h, read-out: Activity
OVCAR-5 = test: Growth inhibition of human OVCAR5 cells assessed as cell growth at 10 uM incubated for 48 hrs by sulforhodamine B assay; format: functional; conditions: OVCAR-5, 48 h, read-out: Activity
OVCAR-8 = test: Growth inhibition of human OVCAR8 cells assessed as cell growth at 10 uM incubated for 48 hrs by sulforhodamine B assay; format: functional; conditions: OVCAR-8, 48 h, read-out: Activity
786-0 = test: Growth inhibition of human 786-0 cells assessed as cell growth at 10 uM incubated for 48 hrs by sulforhodamine B assay; format: functional; conditions: 786-0, 48 h, read-out: Activity
A498 = test: Growth inhibition of human A498 cells assessed as cell growth at 10 uM incubated for 48 hrs by sulforhodamine B assay; format: functional; conditions: A498, 48 h, read-out: Activity
ACHN = test: Growth inhibition of human ACHN cells assessed as cell growth at 10 uM incubated for 48 hrs by sulforhodamine B assay; format: functional; conditions: read-out: Activity
CAKI-1 = test: Growth inhibition of human Caki1 cells assessed as cell growth at 10 uM incubated for 48 hrs by sulforhodamine B assay; format: functional; conditions: CAKI-1, 48 h, read-out: Activity
SN12C = test: Growth inhibition of human SN12C cells assessed as cell growth at 10 uM incubated for 48 hrs by sulforhodamine B assay; format: functional; conditions: read-out: Activity
TK-10 = test: Growth inhibition of human TK10 cells assessed as cell growth at 10 uM incubated for 48 hrs by sulforhodamine B assay; format: functional; conditions: TK-10, 48 h, read-out: Activity
UO-31 = test: Growth inhibition of human UO31 cells assessed as cell growth at 10 uM incubated for 48 hrs by sulforhodamine B assay; format: functional; conditions: UO-31, 48 h, read-out: Activity
PC-3 = test: Growth inhibition of human PC3 cells assessed as cell growth at 10 uM incubated for 48 hrs by sulforhodamine B assay; format: functional; conditions: PC-3, 48 h, read-out: Activity
DU-145 = test: Growth inhibition of human DU145 cells assessed as cell growth at 10 uM incubated for 48 hrs by sulforhodamine B assay; format: functional; conditions: DU-145, 48 h, read-out: Activity
MCF7 = test: Growth inhibition of human MCF7 cells assessed as cell growth at 10 uM incubated for 48 hrs by sulforhodamine B assay; format: functional; conditions: MCF7, 48 h, read-out: Activity
BT-549 = test: Growth inhibition of human BT549 cells assessed as cell growth at 10 uM incubated for 48 hrs by sulforhodamine B assay; format: functional; conditions: BT-549, 48 h, read-out: Activity
[4] = molecular target: Serine/threonine-protein kinase ATR (Homo sapiens) (UniProt Q13535); test: Inhibition of ATR in human U2OS cells assessed as reduction in hydroxyurea-induced Chk-1 phosphorylation at Ser345 residue by measuring ratio of GAPDH level to phosphorylated Chk-1 level at 3 uM preincubated for 1 hr followed by hydroxyurea challenge measured after 2 hrs by Western blot analysis; format: cell-based
[5] = molecular target: Serine/threonine-protein kinase ATR (Homo sapiens) (UniProt Q13535); test: Inhibition of ATR in human U2OS cells assessed as reduction in hydroxyurea-induced Chk-1 phosphorylation at Ser345 residue by measuring ratio of GAPDH level to phosphorylated Chk-1 level at 10 uM preincubated for 1 hr followed by hydroxyurea challenge measured after 2 hrs by Western blot analysis; format: cell-based
[6] = molecular target: Serine/threonine-protein kinase ATR (Homo sapiens) (UniProt Q13535); test: Inhibition of ATR in human U2OS cells assessed as reduction in hydroxyurea-induced Chk-1 phosphorylation at Ser345 residue preincubated for 1 hr followed by hydroxyurea challenge measured after 2 hrs by Western blot analysis; format: cell-based

Chain of Serine/threonine-protein kinase ATR (Homo sapiens) (Q13535 whole entry, looked up): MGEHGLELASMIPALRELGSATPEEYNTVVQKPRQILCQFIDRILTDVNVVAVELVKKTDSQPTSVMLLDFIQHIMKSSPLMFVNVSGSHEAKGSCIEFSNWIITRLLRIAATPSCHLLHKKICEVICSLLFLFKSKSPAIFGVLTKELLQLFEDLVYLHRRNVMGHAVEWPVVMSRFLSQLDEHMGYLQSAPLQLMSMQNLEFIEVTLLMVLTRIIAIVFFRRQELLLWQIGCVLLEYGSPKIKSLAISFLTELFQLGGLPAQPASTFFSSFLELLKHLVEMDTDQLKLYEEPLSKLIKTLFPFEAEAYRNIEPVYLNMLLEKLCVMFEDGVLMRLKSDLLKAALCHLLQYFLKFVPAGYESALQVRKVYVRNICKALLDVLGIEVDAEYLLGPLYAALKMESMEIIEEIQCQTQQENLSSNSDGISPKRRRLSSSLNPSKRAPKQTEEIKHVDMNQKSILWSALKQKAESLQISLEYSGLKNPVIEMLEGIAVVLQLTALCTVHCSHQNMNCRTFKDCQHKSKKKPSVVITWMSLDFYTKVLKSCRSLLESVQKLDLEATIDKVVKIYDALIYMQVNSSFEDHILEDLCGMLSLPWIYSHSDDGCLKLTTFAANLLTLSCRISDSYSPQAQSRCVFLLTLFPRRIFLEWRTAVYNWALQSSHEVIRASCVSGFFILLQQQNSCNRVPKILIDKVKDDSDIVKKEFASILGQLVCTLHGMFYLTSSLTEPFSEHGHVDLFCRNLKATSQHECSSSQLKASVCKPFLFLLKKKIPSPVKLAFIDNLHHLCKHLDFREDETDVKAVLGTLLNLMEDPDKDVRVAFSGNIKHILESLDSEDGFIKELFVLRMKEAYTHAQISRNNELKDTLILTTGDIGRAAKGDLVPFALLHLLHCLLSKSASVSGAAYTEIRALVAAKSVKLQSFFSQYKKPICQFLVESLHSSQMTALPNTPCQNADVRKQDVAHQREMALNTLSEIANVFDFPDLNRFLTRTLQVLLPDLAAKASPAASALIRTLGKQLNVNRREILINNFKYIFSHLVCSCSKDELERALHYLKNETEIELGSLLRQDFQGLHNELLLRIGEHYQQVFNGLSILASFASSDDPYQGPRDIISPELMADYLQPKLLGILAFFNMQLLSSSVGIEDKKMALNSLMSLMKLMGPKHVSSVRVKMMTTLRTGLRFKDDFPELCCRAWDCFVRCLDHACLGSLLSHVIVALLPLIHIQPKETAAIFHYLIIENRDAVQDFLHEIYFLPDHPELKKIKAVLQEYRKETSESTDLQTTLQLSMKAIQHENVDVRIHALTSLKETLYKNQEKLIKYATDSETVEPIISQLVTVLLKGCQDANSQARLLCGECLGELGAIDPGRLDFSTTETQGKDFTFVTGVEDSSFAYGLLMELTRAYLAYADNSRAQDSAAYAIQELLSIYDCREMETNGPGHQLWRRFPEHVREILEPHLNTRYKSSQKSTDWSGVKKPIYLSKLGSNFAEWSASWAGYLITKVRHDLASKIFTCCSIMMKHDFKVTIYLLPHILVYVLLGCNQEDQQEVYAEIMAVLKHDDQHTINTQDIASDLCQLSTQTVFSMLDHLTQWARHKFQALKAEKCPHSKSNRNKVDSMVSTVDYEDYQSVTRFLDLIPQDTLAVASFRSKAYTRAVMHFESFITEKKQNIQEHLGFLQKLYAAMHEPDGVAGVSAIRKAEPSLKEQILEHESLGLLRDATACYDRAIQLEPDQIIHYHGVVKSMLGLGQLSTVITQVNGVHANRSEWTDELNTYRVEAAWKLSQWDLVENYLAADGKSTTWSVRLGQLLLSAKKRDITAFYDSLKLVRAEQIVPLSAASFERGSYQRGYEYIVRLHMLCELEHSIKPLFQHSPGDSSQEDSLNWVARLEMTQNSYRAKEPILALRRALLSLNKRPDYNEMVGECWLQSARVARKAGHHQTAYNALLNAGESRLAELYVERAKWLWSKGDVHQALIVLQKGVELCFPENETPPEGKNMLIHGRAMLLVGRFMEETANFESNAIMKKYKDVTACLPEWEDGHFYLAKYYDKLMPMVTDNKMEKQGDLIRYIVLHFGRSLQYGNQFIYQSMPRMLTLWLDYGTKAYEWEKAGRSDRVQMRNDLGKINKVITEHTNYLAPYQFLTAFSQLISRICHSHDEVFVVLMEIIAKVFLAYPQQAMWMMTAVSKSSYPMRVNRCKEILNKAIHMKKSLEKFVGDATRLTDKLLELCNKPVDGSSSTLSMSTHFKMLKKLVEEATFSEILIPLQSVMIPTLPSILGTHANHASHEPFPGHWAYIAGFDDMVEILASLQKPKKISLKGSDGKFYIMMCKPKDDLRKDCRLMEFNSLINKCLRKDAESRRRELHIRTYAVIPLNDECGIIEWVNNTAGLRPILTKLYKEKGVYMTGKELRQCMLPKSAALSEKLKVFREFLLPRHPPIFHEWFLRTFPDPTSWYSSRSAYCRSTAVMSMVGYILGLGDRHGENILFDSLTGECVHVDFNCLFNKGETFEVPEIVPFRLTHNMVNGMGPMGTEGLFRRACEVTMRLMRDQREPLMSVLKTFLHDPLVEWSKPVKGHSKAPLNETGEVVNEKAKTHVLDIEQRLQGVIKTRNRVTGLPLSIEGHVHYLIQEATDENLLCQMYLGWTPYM

Structure (SMILES)	inhibition [1]	inhibition [2]	inhibition [3]	Activity (Ramos)	growth at 10 µM (HL-60(TB)) [%]	growth at 10 µM (CCRF-CEM) [%]	growth at 10 µM (RPMI-8226) [%]	growth at 10 µM (EKVX) [%]	growth at 10 µM (HOP-62) [%]	growth at 10 µM (HOP-92) [%]	growth at 10 µM (NCI-H23) [%]	growth at 10 µM (NCI-H522) [%]	growth at 10 µM (SF-539) [%]	growth at 10 µM (U-251) [%]	growth at 10 µM (Malme-3M) [%]	growth at 10 µM (SK-MEL-2) [%]	growth at 10 µM (UACC-257) [%]	growth at 10 µM (OVCAR-5) [%]	growth at 10 µM (OVCAR-8) [%]	growth at 10 µM (786-0) [%]	other results
C/S(=N\C#N)c1ccc(-c2cnc(N)c(C(=O)Nc3ccccc3)n2)cc1 (stereo unspecified)	Active	inactive	Active	Active	79.2	83.5	101	107	110	93.4	98.2	77.2	85.7	93.2	80	92.2	106	120	102	59.5	growth at 10 µM (A498): 86.3%; growth at 10 µM (ACHN): 54%; growth at 10 µM (CAKI-1): 53.2%; growth at 10 µM (SN12C): 82.4%; growth at 10 µM (TK-10): 93.6%; growth at 10 µM (UO-31): 49.1%; growth at 10 µM (PC-3): 86%; growth at 10 µM (DU-145): 80.3%; growth at 10 µM (MCF7): 75.7%; growth at 10 µM (BT-549): 83.5%; Ratio [4]: 40.1; Ratio [5]: 22.5; inhibition [6]: Dose-dependent effect
CS(=O)(=NC#N)c1ccc(-c2cnc(N)c(C(=O)Nc3ccccc3)n2)cc1 (stereo unspecified)	Active	inactive	Active	Active	108	79.9	105	88.1	97	106	81.2	86.8	69	68.5	127	94	102	163	96.8	45.5	growth at 10 µM (A498): 76.1%; growth at 10 µM (ACHN): 51.4%; growth at 10 µM (CAKI-1): 47.2%; growth at 10 µM (SN12C): 78.8%; growth at 10 µM (TK-10): 97.4%; growth at 10 µM (UO-31): 48.1%; growth at 10 µM (PC-3): 90.2%; growth at 10 µM (DU-145): 75.6%; growth at 10 µM (MCF7): 45.5%; growth at 10 µM (BT-549): 73.4%; Ratio [4]: 58.1; Ratio [5]: 43.1; inhibition [6]: Dose-dependent effect
